TGI and GI50 data for 22 molecules are collected here from PubChem BioAssay (NCI).

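Five compound concentrations were applied to cells in 96-well plates for 48 hours; endpoints were derived by simple linear interpolation of the resulting dose-response curve. GI50: concentration for 50% inhibition of growth. TGI denotes the concentration required for complete inhibition of growth.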 Some results are limits rather than exact numbers.

Experiment in all cases: NCI anticancer screen, dose series, 48 h
Test [1] relates to CAKI-1 renal.
Test [2] relates to HL-60(TB) leukemia.
For test [3], the system named is K-562 leukemia.
In test [4] the test system is NCI-H23 lung.
Test [5] concerns OVCAR-4 ovarian.
Test [6] has as its system RPMI-8226 leukemia.
In test [7] the test system is SK-MEL-2 melanoma.
Test [8] has as its system TK-10 renal.
Test [9] has as its system UACC-257 melanoma.
Test [10] relates to HT29 colon.

For the molecule `CCc1ccc(Cc2ccc(CC)c(NC(=O)C(=O)Cc3nc4ccccc4nc3C)c2CC)c(CC)c1NC(=O)C(=O)Cc1nc2ccccc2nc1C`, the TGI in test [1], in test [2], in [3], in test [4], in test [5] and in [6] was more than 100 µM each time. Besides, the TGI in test [7], in test [8] and in [9] was more than 100 µM in each case.
For the molecule `CN(C)C1(C#N)CCC2(CC1)OCCO2`, the TGI in test [1], in test [2], in [10], in test [3], in [4] and in test [5] was more than 100 µM throughout. Further, the TGI in test [6], in test [7], in test [8] and in test [9] was more than 100 µM throughout.
For `COc1ccc(C(=O)/C=C/c2ccc(Cl)cc2)cc1S(N)(=O)=O`, the GI50 was 2.72 µM in [1]; 3.08 µM in [2]; 3.27 µM in test [10]; 0.568 µM in test [3]; 2.54 µM in test [4]; 3.46 µM in test [5]. Further, the GI50 in [6] was 2.61 µM; in [7] it was 12.4 µM; in test [8], 2.47 µM; in [9], 12.2 µM. The TGI is 10.6 µM in test [1]; 8.77 µM in test [2]; 10.5 µM in [10]; more than 100 µM in [3]; 7.06 µM in test [4]; 12.6 µM in test [5]. Moreover, the TGI was found to be 6.53 µM in test [6], 25.7 µM in [7], 7.81 µM in [8] and 24.9 µM in [9].
Take `Cc1nc2c(cnn2-c2ccnc3c(C(F)(F)F)cccc23)c(=O)o1`: the GI50 in test [1], in test [2], in [10], in test [3], in test [4] and in test [5] was more than 100 µM throughout. The GI50 in test [6], in test [7], in test [8] and in test [9] was more than 100 µM in each case. Further, the TGI in test [1], in [2], in test [10], in test [3], in test [4] and in test [5] was more than 100 µM in each case. Also, the TGI in test [6], in test [7], in test [8] and in [9] was more than 100 µM throughout.
`COCCNC(=O)C1C(=O)N(CCOC)C(=O)/C1=N/N` (stereo unspecified): the TGI in test [1], in test [2], in test [10], in test [3], in [4] and in [6] was more than 100 µM each time. Moreover, the TGI in test [7], in test [8] and in test [9] was more than 100 µM in each case.
In the case of `CC/C(=C(\c1ccccc1)c1ccc(OCCN(C)C)cc1)c1ccccc1`, the GI50 is 3.42 µM in test [1]; 1.78 µM in [2]; 1.17 µM in test [10]; 1.84 µM in test [3]; 3.68 µM in [4]; 1.2 µM in test [6]. Besides, the GI50 in [9] is 0.971 µM.
As to `NC(=O)C/C=C/CC(N)=O`, the TGI in test [1], in [2], in [10], in test [4], in test [5] and in test [6] was more than 100 µM in each case. Moreover, the TGI in test [7], in test [8] and in [9] was more than 100 µM throughout.
`CCN(CC)CCn1c(=N)n(CC(O)c2ccc(Cl)c(Cl)c2)c2ccccc21` (stereo unspecified): the GI50 in [1] was 11.8 µM; in test [2], 5.12 µM; in test [10] it was 3.3 µM; in test [3], 2.33 µM; in test [4], 15 µM; in [5], 10.6 µM. In addition, the GI50 is 2.72 µM in test [6], 2.93 µM in [7] and 14.1 µM in test [8]. Moreover, the TGI amounted to 25.1 µM in test [1]; 22.2 µM in test [2]; 12.1 µM in test [10]; 6.36 µM in [3]; 32.5 µM in test [4]; 24.3 µM in test [5]. Besides, the TGI turned out to be 8.02 µM in test [6], 8.32 µM in test [7] and 27.1 µM in test [8].
Consider `COC(=O)C1=Cc2cc3c(cc2[C@H](c2ccc4c(c2)OCO4)C1C(=O)OC)OCO3` (stereo partly specified), for which the TGI in test [1], in test [2], in test [10], in test [3], in test [4] and in test [5] was more than 100 µM in each case. Further, the TGI in test [6], in [8] and in [9] was more than 100 µM in each case.
Consider `COC(=O)C(=O)C(C#N)c1cccc2ccccc12` (stereo unspecified), for which the TGI in test [1], in test [2], in [10], in [3], in test [4] and in test [5] was more than 100 µM throughout. Besides, the TGI in test [6] and in test [9] was more than 100 µM throughout.
For `Cc1cc(Cl)n2c(nc3ccccc32)c1C#N`, the GI50 was 0.282 µM in test [1]; 0.241 µM in test [2]; 0.256 µM in [3]; 0.422 µM in [4]; 0.971 µM in [5]; 0.231 µM in [6]. Also, the GI50 in test [7] is 0.396 µM; in test [8] it was 0.898 µM; in test [9], 0.727 µM. For the same molecule, the TGI is 1.41 µM in test [1]; 1.09 µM in [2]; 61.3 µM in test [3]; 2.55 µM in test [4]; 3.43 µM in [5]; 2.45 µM in [6]. For the same molecule, the TGI in [7] amounted to 2.25 µM; in [8], 10.9 µM; in test [9], 4.8 µM.
As to `CC(C)Oc1cc(OCC(=O)O)cc(C(=O)N(CCC(N)=O)C(=O)Nc2ccc(C(=O)O)cc2OC(C)C)c1`, the GI50 in [2], in test [10], in test [3], in [4], in test [5] and in test [6] was more than 100 µM throughout. For the same molecule, the GI50 in [7], in [8] and in test [9] was more than 100 µM throughout. Also, the TGI in [2], in test [10], in [3], in test [4], in test [5] and in test [6] was more than 100 µM each time. Besides, the TGI in test [7], in test [8] and in test [9] was more than 100 µM throughout.
As for `CCOC(=O)C(C(=O)c1ccccc1-c1ccccc1C(=O)O)=P(c1ccccc1)(c1ccccc1)c1ccccc1`, the TGI in test [2] is 57.5 µM; in [10] it was more than 100 µM; in test [3], more than 100 µM; in [4], 40 µM; in test [5], 43.6 µM; in test [6], 78.9 µM. The values for the TGI in [7], in [8] and in [9] were 40.3 µM, more than 100 µM and 76.4 µM, respectively.
As for `CCOP1(=O)OCC2OC(n3cnc4c(N)ncnc43)C(O)C2O1` (stereo unspecified), the TGI in [1], in test [2], in [10], in test [3], in test [5] and in [6] was more than 100 µM throughout. Moreover, the TGI in test [7], in [8] and in test [9] was more than 100 µM each time.
Consider `COc1ccccc1/C=C1\COc2ccc(O)c(O)c2C1=O`, for which the GI50 is 1.48 µM in test [1]; 0.407 µM in test [2]; 2.77 µM in test [10]; 0.671 µM in [3]; 2.04 µM in test [4]; 1.86 µM in [5]. Moreover, the GI50 in test [6] was 0.235 µM; in test [7], 2.72 µM; in test [8], 3.08 µM. Besides, the TGI in test [1] is 4.15 µM; in test [2] it was 4.49 µM; in test [10], 7.78 µM; in test [3] it was 14.1 µM; in test [4], 6.11 µM; in [5], 9.55 µM. For the same molecule, the TGI in [6] is 0.693 µM; in [7], 8.67 µM; in [8], more than 100 µM.
On to `COC1CC(OC2OC(CO)C(O)C(O)C2O)/C(=C\C#N)C(O)C1OC` (stereo unspecified), for which the TGI in test [1], in test [2], in [10], in test [4], in test [5] and in [6] was more than 100 µM throughout. Further, the TGI in test [7], in [8] and in test [9] was more than 100 µM throughout.
On to `O=C(Nc1ccc(Cl)c(Cl)c1)Nc1ccc(Cl)c([N+](=O)[O-])c1`, for which the GI50 in test [2] is 0.947 µM; in test [10], 1.24 µM; in test [3], 1.06 µM; in test [4], 0.698 µM; in test [5], 0.768 µM; in test [6] it was 0.895 µM. The GI50 in test [7] was 1.14 µM; in [8] it was 1.42 µM; in test [9], 2.85 µM. Besides, the TGI amounted to 14.6 µM in test [2]; 4.82 µM in test [10]; 19 µM in test [3]; 2.69 µM in test [4]; 8.01 µM in [5]; 9.47 µM in test [6]. Moreover, the results for the TGI in [7], in [8] and in test [9] were 5.5 µM, 6.9 µM and 7.15 µM, respectively.
As for `O=C(Nc1nc2ncn(CCOC(=O)c3ccccc3)c2c(=O)[nH]1)c1ccccc1`, the TGI in test [1] was more than 100 µM; in [2] it was more than 24.6 µM; in test [10], more than 37.9 µM; in test [3], more than 100 µM; in test [4], more than 100 µM; in test [6], more than 100 µM. For the same molecule, the TGI in [7], in test [8] and in [9] was more than 100 µM throughout.
On to `CC(C)c1ccc2c(c1)CCC1C(C)(C)[C@@H](O)CC[C@]21C` (stereo partly specified), for which the TGI in [1] is more than 100 µM; in test [2], 37.6 µM; in test [10], 30 µM; in [3], more than 100 µM; in test [4], 93 µM; in test [5], more than 100 µM. Besides, the TGI in test [6] is 52 µM; in test [8], more than 100 µM.
Turning to `CCOC(=O)c1cc2c(n1Cc1cccc(OC)c1)-c1oncc1CC2`, the GI50 in [2] is 0.297 µM; in [10], 0.37 µM; in test [3], 0.343 µM; in [4] it was 3.42 µM; in test [5], 9.6 µM; in [6], 3.52 µM. For the same molecule, the GI50 in test [7] is 1.11 µM; in test [8], 7.51 µM; in test [9] it was 39.6 µM. Moreover, the TGI in test [2] is 1.63 µM; in test [10] it was 15.8 µM; in [3] it was more than 100 µM; in test [4], more than 100 µM; in test [5] it was more than 100 µM; in [6], more than 100 µM. Besides, the TGI in test [7], in [8] and in test [9] was more than 100 µM each time.
`COc1ccc([C@H]2c3cc(OC)c(OC)cc3C=C(C=O)C2CO)cc1OC` (stereo partly specified): the GI50 in [1] is 3.02 µM; in [2], 3.65 µM; in test [3], 6.03 µM; in test [4] it was 7.15 µM; in [5], 7.94 µM; in test [6], 9.22 µM. The GI50 in [9] was more than 100 µM. In addition, the TGI in test [1], in test [2], in [3], in test [4], in [5] and in [6] was more than 100 µM in each case. This molecule yielded a TGI in [9] of more than 100 µM.
On to `CC(=O)NNc1nc(C)c(C(/C=C/c2ccc(/C=C/C(=N\NC(=O)c3ccncc3)c3sc(NNC(C)=O)nc3C)cc2)=N/NC(=O)c2ccncc2)s1`, for which the TGI in test [1], in test [2], in test [10], in [3], in test [4] and in [6] was more than 100 µM each time. In addition, the TGI in test [7], in test [8] and in test [9] was more than 100 µM each time.
